Reference: ChEMBL document CHEMBL3885861, “Open TG-GATES”

Organism: Rattus norvegicus
Assay: Open TG-GATES - Regimen: Single
Type: toxicity, organism-based, Sprague-Dawley
Design: regimen Single, gender Male, age 6 weeks
Settings: in vivo, po, route gavage; for APTT / Bas / Eos / Fbg / Hb / Ht / Lym / MCH / MCHC / MCV / Mono / Neu / PT / Plat / RBC / Ret / WBC: tissue Blood; for KIDNEY_L / KIDNEY_R / KIDNEY_TOTAL: tissue Kidney; for LIVER: tissue Liver; for ALP / ALT / AST / BUN / CRE / Ca / DBIL / GLC / IP / K / LDH / Na / PL / RALB / TBIL / TC / TG / TP / gamma-GTP: tissue Plasma
[1] = 30 mg/kg, 3 h, dose level Middle
[2] = 30 mg/kg, 6 h, dose level Middle
[3] = 30 mg/kg, 9 h, dose level Middle
[4] = 30 mg/kg, 24 h, dose level Middle
[5] = 100 mg/kg, 3 h, dose level High
[6] = 100 mg/kg, 6 h, dose level High
[7] = 100 mg/kg, 9 h, dose level High
[8] = 100 mg/kg, 24 h, dose level High

CSc1ccc2c(c1)N(CCC1CCCCN1C)c1ccccc1S2 (stereo not given) [THIORIDAZINE]
TERMINAL_BW [1]: 215.8 g
APTT [1]: 16.7 s
Bas [1]: 0%
Eos [1]: 1%
Fbg [1]: 201.2 mg/dL
Hb [1]: 12.4 g/dL
Ht [1]: 37.2%
Lym [1]: 73.8%
MCH [1]: 22.1 pg
MCHC [1]: 33.3%
MCV [1]: 66.4 fL
Mono [1]: 8.8%
Neu [1]: 16.8%
PT [1]: 12.5 s
Plat [1]: 102.7 x10_4/uL
RBC [1]: 560.6 x10_4/ul
Ret [1]: 8.6%
WBC [1]: 77.9 x10_2/uL
KIDNEY_L [1]: 1 g
KIDNEY_R [1]: 1 g
KIDNEY_TOTAL [1]: 2 g
LIVER [1]: 10.5 g
ALP [1]: 794 IU/L
ALT [1]: 37.8 IU/L
AST [1]: 66.6 IU/L
BUN [1]: 12.4 mg/dL
CRE [1]: 0.5 mg/dL
Ca [1]: 11.1 mg/dL
DBIL [1]: 0.04 mg/dL
GLC [1]: 206.6 mg/dL
IP [1]: 10.3 mg/dL
K [1]: 4.4 meq/L
LDH [1]: 91.2 IU/L
Na [1]: 139 meq/L
PL [1]: 127.2 mg/dL
RALB [1]: 3.6 g/dL
TBIL [1]: 0.4 mg/dL
TC [1]: 70.2 mg/dL
TG [1]: 43.6 mg/dL
TP [1]: 5.2 g/dL
gamma-GTP [1]: 1 IU/L
TERMINAL_BW [2]: 216.3 g
APTT [2]: 15.9 s
Bas [2]: 0%
Eos [2]: 0.6%
Fbg [2]: 230.2 mg/dL
Hb [2]: 12.5 g/dL
Ht [2]: 37.5%
Lym [2]: 74.2%
MCH [2]: 21.9 pg
MCHC [2]: 33.2%
MCV [2]: 66 fL
Mono [2]: 7.8%
Neu [2]: 17.4%
PT [2]: 12 s
RBC [2]: 569.4 x10_4/ul
Ret [2]: 8%
WBC [2]: 91.2 x10_2/uL
KIDNEY_L [2]: 1 g
KIDNEY_R [2]: 1 g
KIDNEY_TOTAL [2]: 2 g
LIVER [2]: 10.3 g
ALP [2]: 765.6 IU/L
ALT [2]: 30.2 IU/L
AST [2]: 63.2 IU/L
BUN [2]: 10.2 mg/dL
CRE [2]: 0.5 mg/dL
Ca [2]: 10.8 mg/dL
DBIL [2]: 0.022 mg/dL
GLC [2]: 208.6 mg/dL
IP [2]: 10.9 mg/dL
K [2]: 4.5 meq/L
LDH [2]: 98.4 IU/L
Na [2]: 139.4 meq/L
PL [2]: 154 mg/dL
RALB [2]: 3.8 g/dL
TBIL [2]: 0.4 mg/dL
TC [2]: 81.4 mg/dL
TG [2]: 62.8 mg/dL
TP [2]: 5.4 g/dL
gamma-GTP [2]: 1.6 IU/L
TERMINAL_BW [3]: 213.1 g
APTT [3]: 16.2 s
Bas [3]: 0%
Eos [3]: 0.4%
Fbg [3]: 213.4 mg/dL
Hb [3]: 12.6 g/dL
Ht [3]: 38%
Lym [3]: 80.6%
MCH [3]: 21.8 pg
MCHC [3]: 33.3%
MCV [3]: 65.6 fL
Mono [3]: 6%
Neu [3]: 13.2%
PT [3]: 12.3 s
Plat [3]: 108 x10_4/uL
RBC [3]: 578.8 x10_4/ul
Ret [3]: 7.8%
WBC [3]: 109.8 x10_2/uL
KIDNEY_L [3]: 0.9 g
KIDNEY_R [3]: 1 g
KIDNEY_TOTAL [3]: 1.9 g
LIVER [3]: 9.6 g
ALP [3]: 971.8 IU/L
ALT [3]: 28.2 IU/L
AST [3]: 58.2 IU/L
BUN [3]: 12.6 mg/dL
CRE [3]: 0.6 mg/dL
Ca [3]: 10.9 mg/dL
DBIL [3]: 0.018 mg/dL
GLC [3]: 215.6 mg/dL
IP [3]: 10.6 mg/dL
K [3]: 4.3 meq/L
LDH [3]: 82.4 IU/L
Na [3]: 141 meq/L
PL [3]: 148.8 mg/dL
RALB [3]: 3.8 g/dL
TBIL [3]: 0.4 mg/dL
TC [3]: 82.2 mg/dL
TG [3]: 59.6 mg/dL
TP [3]: 5.6 g/dL
gamma-GTP [3]: 1.4 IU/L
TERMINAL_BW [4]: 225.1 g
APTT [4]: 16 s
Bas [4]: 0%
Eos [4]: 1%
Fbg [4]: 215.4 mg/dL
Hb [4]: 13.4 g/dL
Ht [4]: 40.3%
Lym [4]: 77.2%
MCH [4]: 21.5 pg
MCHC [4]: 33.3%
MCV [4]: 64.6 fL
Mono [4]: 9%
Neu [4]: 12.8%
PT [4]: 12.1 s
Plat [4]: 108 x10_4/uL
RBC [4]: 623.4 x10_4/ul
Ret [4]: 8%
WBC [4]: 124.9 x10_2/uL
KIDNEY_L [4]: 1 g
KIDNEY_R [4]: 1 g
KIDNEY_TOTAL [4]: 2 g
LIVER [4]: 11.7 g
ALP [4]: 905.2 IU/L
ALT [4]: 43 IU/L
AST [4]: 69.8 IU/L
BUN [4]: 19.4 mg/dL
CRE [4]: 0.5 mg/dL
Ca [4]: 11.5 mg/dL
DBIL [4]: 0.062 mg/dL
GLC [4]: 190.2 mg/dL
IP [4]: 9.3 mg/dL
K [4]: 4.9 meq/L
LDH [4]: 89.2 IU/L
Na [4]: 139.2 meq/L
PL [4]: 163 mg/dL
RALB [4]: 4 g/dL
TBIL [4]: 0.3 mg/dL
TC [4]: 84.4 mg/dL
TG [4]: 119.8 mg/dL
TP [4]: 5.9 g/dL
gamma-GTP [4]: 1 IU/L
TERMINAL_BW [5]: 217.7 g
APTT [5]: 16.7 s
Bas [5]: 0%
Eos [5]: 1%
Fbg [5]: 205.2 mg/dL
Hb [5]: 12.6 g/dL
Ht [5]: 38.2%
Lym [5]: 70.2%
MCH [5]: 21.9 pg
MCHC [5]: 33.1%
MCV [5]: 66.3 fL
Mono [5]: 11%
Neu [5]: 17.8%
PT [5]: 12.2 s
RBC [5]: 576.8 x10_4/ul
Ret [5]: 8.6%
WBC [5]: 56.2 x10_2/uL
KIDNEY_L [5]: 1 g
KIDNEY_R [5]: 1 g
KIDNEY_TOTAL [5]: 2 g
LIVER [5]: 10.5 g
ALP [5]: 990.6 IU/L
ALT [5]: 41.8 IU/L
AST [5]: 70.2 IU/L
BUN [5]: 11.2 mg/dL
CRE [5]: 0.6 mg/dL
Ca [5]: 11 mg/dL
DBIL [5]: 0.018 mg/dL
GLC [5]: 215 mg/dL
K [5]: 4.2 meq/L
LDH [5]: 163.8 IU/L
Na [5]: 139.8 meq/L
PL [5]: 138.2 mg/dL
RALB [5]: 3.7 g/dL
TBIL [5]: 0.3 mg/dL
TC [5]: 80.2 mg/dL
TG [5]: 34.4 mg/dL
TP [5]: 5.3 g/dL
gamma-GTP [5]: 1 IU/L
TERMINAL_BW [6]: 215 g
APTT [6]: 16.9 s
Bas [6]: 0%
Eos [6]: 0.6%
Fbg [6]: 204.6 mg/dL
Hb [6]: 12.5 g/dL
Ht [6]: 37.7%
Lym [6]: 71.6%
MCH [6]: 21.6 pg
MCHC [6]: 33.1%
MCV [6]: 65.1 fL
Mono [6]: 8.6%
Neu [6]: 18.6%
PT [6]: 12.2 s
Plat [6]: 106.5 x10_4/uL
RBC [6]: 579 x10_4/ul
Ret [6]: 7.8%
WBC [6]: 84.2 x10_2/uL
KIDNEY_L [6]: 1 g
KIDNEY_R [6]: 1 g
KIDNEY_TOTAL [6]: 2 g
LIVER [6]: 9.4 g
ALP [6]: 868.4 IU/L
ALT [6]: 30.8 IU/L
AST [6]: 63.8 IU/L
BUN [6]: 8.2 mg/dL
CRE [6]: 0.5 mg/dL
Ca [6]: 10.5 mg/dL
DBIL [6]: 0.016 mg/dL
GLC [6]: 211 mg/dL
IP [6]: 10.6 mg/dL
K [6]: 4.5 meq/L
LDH [6]: 166.6 IU/L
Na [6]: 139.6 meq/L
PL [6]: 135.2 mg/dL
RALB [6]: 3.7 g/dL
TBIL [6]: 0.4 mg/dL
TC [6]: 77.8 mg/dL
TG [6]: 19.6 mg/dL
TP [6]: 5.4 g/dL
gamma-GTP [6]: 2.6 IU/L
TERMINAL_BW [7]: 210.8 g
APTT [7]: 16.3 s
Bas [7]: 0%
Eos [7]: 0.4%
Fbg [7]: 215.6 mg/dL
Hb [7]: 12.5 g/dL
Ht [7]: 38.3%
Lym [7]: 76.8%
MCH [7]: 21 pg
MCHC [7]: 32.8%
MCV [7]: 64.1 fL
Mono [7]: 7.2%
Neu [7]: 15.6%
PT [7]: 12.1 s
Plat [7]: 110.2 x10_4/uL
RBC [7]: 598.4 x10_4/ul
Ret [7]: 7.3%
WBC [7]: 80.7 x10_2/uL
KIDNEY_L [7]: 1 g
KIDNEY_R [7]: 1 g
KIDNEY_TOTAL [7]: 2 g
LIVER [7]: 9.4 g
ALP [7]: 850.6 IU/L
ALT [7]: 31.6 IU/L
AST [7]: 61.2 IU/L
BUN [7]: 9.6 mg/dL
CRE [7]: 0.5 mg/dL
Ca [7]: 10.6 mg/dL
DBIL [7]: 0.018 mg/dL
GLC [7]: 223.4 mg/dL
IP [7]: 9.8 mg/dL
K [7]: 4.2 meq/L
LDH [7]: 144.8 IU/L
Na [7]: 141.4 meq/L
PL [7]: 155.2 mg/dL
RALB [7]: 3.7 g/dL
TBIL [7]: 0.4 mg/dL
TC [7]: 84 mg/dL
TG [7]: 28.4 mg/dL
TP [7]: 5.4 g/dL
gamma-GTP [7]: 1.2 IU/L
TERMINAL_BW [8]: 217.8 g
APTT [8]: 16.1 s
Bas [8]: 0%
Eos [8]: 1%
Fbg [8]: 209 mg/dL
Hb [8]: 13.5 g/dL
Ht [8]: 40.5%
Lym [8]: 84.4%
MCH [8]: 21.5 pg
MCHC [8]: 33.4%
MCV [8]: 64.6 fL
Mono [8]: 4.6%
Neu [8]: 10%
PT [8]: 12.2 s
Plat [8]: 125.1 x10_4/uL
RBC [8]: 628 x10_4/ul
Ret [8]: 7.3%
WBC [8]: 102 x10_2/uL
KIDNEY_L [8]: 1 g
KIDNEY_R [8]: 1 g
KIDNEY_TOTAL [8]: 2.1 g
LIVER [8]: 10.9 g
ALP [8]: 952.2 IU/L
ALT [8]: 35.4 IU/L
AST [8]: 62.4 IU/L
BUN [8]: 21.4 mg/dL
CRE [8]: 0.5 mg/dL
Ca [8]: 11.2 mg/dL
DBIL [8]: 0.022 mg/dL
GLC [8]: 210.8 mg/dL
IP [8]: 9.8 mg/dL
K [8]: 4.5 meq/L
LDH [8]: 166.8 IU/L
Na [8]: 140.4 meq/L
PL [8]: 172.6 mg/dL
RALB [8]: 4.2 g/dL
TBIL [8]: 0.3 mg/dL
TC [8]: 91.4 mg/dL
TG [8]: 97.8 mg/dL
TP [8]: 6.1 g/dL
gamma-GTP [8]: 1.4 IU/L
